Calls of active or inactive are those of the source. The calls are words filed in the database; no cut-off is given here. Peptide text beside a SMILES is read from it.
What was measured:
HepG2 [1] = assay: Antiproliferative activity against human HepG2 cells under dark condition by CCK8 assay; type: functional, cell-based
[2] = Partition coefficient, logP of compound; type: physicochemical; conditions: octanol/water
[3] = Aggregation property of compound in PBS; type: physicochemical; conditions: buffer
chymotrypsin = chymotrypsin (Homo sapiens, UniProt P17538+P40313+Q6GPI1+Q99895); assay: Stability of compound assessed as chymotrypsin (unknown origin)-mediated compound degradation in PBS at pH 7.4 by measuring half life; type: ADME, protein assay
[4] = […] assessed as decrease in fluorescence intensity of DMA; type: functional
[5] = Drug uptake in human HepG2 cells at 10 uM by confocal microscopy; type: ADME, cell-based; conditions: hepg2, 10 µM, TDE = time-dependent effect, time 4-24 hrs
[6] = Drug uptake in human Huh-7 cells at 10 uM by confocal microscopy; type: ADME, cell-based; conditions: huh-7, 10 µM, TDE = time-dependent effect, time 4-24 hrs
[7] = Drug uptake in lysosome of human HepG2 cells assessed as pearsons co-efficient of lyso tracker green DND-26-yellow signal at 2 uM incubated for 24 hrs by laser confocal microscopy; type: ADME, subcellular; conditions: hepg2, 24 h
[8] = Drug uptake in endoplasmic reticulum of human HepG2 cells assessed as pearsons co-efficient of ER tracker green-yellow signal at 2 uM incubated for 24 hrs by laser confocal microscopy; type: ADME, subcellular; conditions: hepg2, 24 h
HepG2 [9] = assay: Induction of apoptosis in human HepG2 cells assessed as late apoptotic cells at 2.5 uM incubated for 24 hrs followed by 10 J/cm2 of light irradiation at 660 nm measured after 24 hrs by Annexin V-FITC/PI staining based flow cytometry relative to control; type: functional; conditions: time 48 hrs
HepG2 [10] = assay: Induction of apoptosis in human HepG2 cells assessed as necrotic cells at 2.5 uM incubated for 24 hrs followed by 10 J/cm2 of light irradiation at 660 nm measured after 24 hrs by Annexin V-FITC/PI staining based flow cytometry relative to control; type: functional; conditions: time 48 hrs
HepG2 [11] = assay: Induction of apoptosis in human HepG2 cells assessed as early apoptotic cells under dark condition at 2.5 uM incubated for 24 hrs by Annexin V-FITC/PI staining based flow cytometry relative to control; type: functional
HepG2 [12] = assay: Induction of apoptosis in human HepG2 cells assessed as late apoptotic cells under dark condition at 2.5 uM incubated for 24 hrs by Annexin V-FITC/PI staining based flow cytometry relative to control; type: functional
HepG2 [13] = assay: Induction of apoptosis in human HepG2 cells assessed as early apoptotic cells at 5 uM incubated for 24 hrs followed by 10 J/cm2 of light irradiation at 660 nm measured after 24 hrs by Annexin V-FITC/PI staining based flow cytometry relative to control; type: functional; conditions: time 48 hrs
HepG2 [14] = assay: Induction of apoptosis in human HepG2 cells assessed as necrotic cells at 5 uM incubated for 24 hrs followed by 10 J/cm2 of light irradiation at 660 nm measured after 24 hrs by Annexin V-FITC/PI staining based flow cytometry relative to control; type: functional; conditions: time 48 hrs
HepG2 [15] = assay: Induction of apoptosis in human HepG2 cells assessed as late apoptotic cells under dark condition at 5 uM incubated for 24 hrs by Annexin V-FITC/PI staining based flow cytometry relative to control; type: functional
HepG2 [16] = assay: Induction of apoptosis in human HepG2 cells assessed as necrotic cells under dark condition at 5 uM incubated for 24 hrs by Annexin V-FITC/PI staining based flow cytometry relative to control; type: functional
[17] = Drug uptake in endoplasmic reticulum of human Huh-7 cells at 2 uM incubated for 24 hrs by ER tracker green probe based laser confocal microscopy; type: ADME, subcellular; conditions: huh-7, 24 h
[18] = Drug distribution in heart of BALB/C nude mouse model xenografted with human HepG2 cells at 1 to 2 uM/kg, iv measured for 1 to 4 hrs by fluorescence imaging analysis; type: ADME, organism-based; conditions: in vivo, dose lower 1 µM/Kg, time lower 1 hrs, dose upper 2 µM/Kg, time upper 4 hrs
[19] = Drug distribution in lung of BALB/C nude mouse model xenografted with human HepG2 cells at 1 to 2 uM/kg, iv measured for 1 to 4 hrs by fluorescence imaging analysis; type: ADME, organism-based; conditions: in vivo, dose lower 1 µM/Kg, time lower 1 hrs, dose upper 2 µM/Kg, time upper 4 hrs
[20] = Drug distribution in kidney of BALB/C nude mouse model xenografted with human HepG2 cells at 1 to 2 uM/kg, iv measured for 1 to 4 hrs by fluorescence imaging analysis; type: ADME, organism-based; conditions: in vivo, dose lower 1 µM/Kg, time lower 1 hrs, dose upper 2 µM/Kg, time upper 4 hrs
[21] = Drug distribution in tumor of BALB/C nude mouse model xenografted with human Huh-7 cells at 1 to 2 uM/kg, iv measured for 1 to 6 hrs by fluorescence imaging analysis; type: ADME, organism-based, Neoplasm; conditions: in vivo, dose lower 1 µM/Kg, time lower 1 hrs, dose upper 2 µM/Kg, time upper 6 hrs
[22] = Drug distribution in tumor of BALB/C nude mouse model xenografted with human HepG2 cells at 1 uM/kg, iv measured after 2 hrs by fluorescence spectrophotometry; type: ADME, organism-based, Neoplasm; conditions: in vivo
[23] = Drug distribution in tumor of BALB/C nude mouse model xenografted with human HepG2 cells administered intravenously measured after 2 hrs by fluorescence spectrophotometry; type: ADME, tissue-based, Neoplasm; conditions: in vivo, iv, dose 1-2 µM/Kg
[24] = Drug distribution in tumor of BALB/C nude mouse model xenografted with human Huh-7 cells administered intravenously measured after 2 hrs by fluorescence spectrophotometry; type: ADME, tissue-based, Neoplasm; conditions: in vivo, iv, dose 1-2 µM/Kg
HepG2 [25] = assay: Antitumor activity in human HepG2 cells xenografted in BALB/C nude mouse model assessed as tumor growth inhibition at 1 to 2 uM/kg, iv administered every two days for 21 days along with 250 mW/cm2 light irradiation at 660 nm for 10 mins at 1 hr post-compound administration relative to control; type: functional; conditions: dose 1-2 µM/Kg, time 505.166 hrs, 505.17 h, at 1 to 2 µmol/kg
[26] = Toxicity in BALB/C nude mouse model xenografted with human HepG2 cells assessed as drug tolerance at 1 to 2 uM/kg, iv administered every two days for 21 days along with 250 mW/cm2 light irradiation at 660 nm for 10 mins at 1 hr post-compound administration; type: organism-based; conditions: in vivo, 505.17 h, dose 1-2 µM/Kg, time 505.166 hrs
[27] = Toxicity in BALB/C nude mouse model xenografted with human HepG2 cells assessed as body weight loss at 1 to 2 uM/kg, iv administered every two days for 21 days along with 250 mW/cm2 light irradiation at 660 nm for 10 mins at 1 hr post-compound administration; type: organism-based; conditions: in vivo, 505.17 h, dose 1-2 µM/Kg, time 505.166 hrs
[28] = Toxicity in BALB/C nude mouse model xenografted with human HepG2 cells assessed as change in heart weight at 1 to 2 uM/kg, iv administered every two days for 21 days along with 250 mW/cm2 light irradiation at 660 nm for 10 mins at 1 hr post-compound administration; type: organism-based; conditions: in vivo, 505.17 h, dose 1-2 µM/Kg, time 505.166 hrs
[29] = Toxicity in BALB/C nude mouse model xenografted with human HepG2 cells assessed as damage in heart at 1 to 2 uM/kg, iv administered every two days for 21 days along with 250 mW/cm2 light irradiation at 660 nm for 10 mins at 1 hr post-compound administration by H and E staining based analysis; type: organism-based; conditions: in vivo, 505.17 h, dose 1-2 µM/Kg, time 505.166 hrs
HepG2 [30] = assay: Antitumor activity against human HepG2 cells xenografted in BALB/C nude mouse model assessed as decrease in Ki67 expression at 1 to 2 uM/kg, iv administered every two days for 21 days along with 250 mW/cm2 light irradiation at 660 nm for 10 mins at 1 hr post-compound administration by […] based analysis; type: functional, organism-based; conditions: dose 1-2 µM/Kg, time 505.166 hrs

## C=Cc1c(C)c2cc3nc(c(CC(=O)O)c4[nH]c(cc5nc(cc1[nH]2)C(C)=C5CC)c(C)c4C(=O)NCCCC(=O)N[C@@H](CC(=O)O)C(=O)N[C@@H](Cc1cnc[nH]1)C(=O)N[C@@H](CC(C)C)C(=O)N[C@@H](C)C(=O)N[C@@H](CO)C(=O)N[C@@H](CC(C)C)C(=O)N[C@@H](Cc1c[nH]c2ccccc12)C(=O)N[C@@H](Cc1c[nH]c2ccccc12)C(=O)NCC(=O)N[C@H](C(=O)N[C@@H](CCC(=O)O)C(=O)N[C@@H](CC(C)C)C(=O)O)[C@@H](C)O)[C@@H](CCC(=O)O)[C@@H]3C (HELM PEPTIDE1{[C=Cc1c(C)c2cc3nc(c(CC(=O)O)c4[nH]c(cc5nc(cc1[nH]2)C(C)=C5CC)c(C)c4C(=O)[*:2])[C@@H](CCC(=O)O)[C@@H]3C].[O=C(CCCN[*:1])[*:2]].D.H.L.A.S.L.W.W.G.T.E.L}$$$$V2.0)
HepG2 [1]
  IC50: > 100 µM
[2]
  logP: 1.8
[3]
  Activity: Active
chymotrypsin
  half-life: 7.6 h
[4]
  Activity: Active
[5]
  Drug uptake: Tde
[6]
  Drug uptake: Tde
[7]
  Activity: 0.79
[8]
  Activity: 0.65
HepG2 [9]
  Activity: 17.8%
HepG2 [10]
  Activity: 74%
HepG2 [11]
  Activity: 2.7%
HepG2 [12]
  Activity: 2%
HepG2 [13]
  Activity: 8.4%
HepG2 [14]
  Activity: 15.3%
HepG2 [15]
  Activity: 1.7%
HepG2 [16]
  Activity: 0.1%
[17]
  Drug uptake: Active
[18]
  Drug uptake: Not Active
[19]
  Drug uptake: Not Active
[20]
  Drug uptake: Not Active
[21]
  Drug uptake: Active
[22]
  Drug uptake: Active
[23]
  Drug uptake: Dose-Dependent Effect
[24]
  Drug uptake: Active
HepG2 [25]
  TGI: 100%
[26]
  Activity: Non-Toxic
[27]
  Activity: Non-Toxic
[28]
  Activity: Non-Toxic
[29]
  Activity: Non-Toxic
HepG2 [30]
  Activity: Active

— ChEMBL document CHEMBL5537154, “Smart glypican-3-targeting peptide-chlorin e6 conjugates for targeted photodynamic therapy of hepatocellular carcinoma” (Eur J Med Chem, 2024)
